Experimental data as given in the kinase profiling compilation of Christmann-Franck et al. (2016).

Tests used:
Test in all cases: radiometric filter-binding kinase assay
AURKB (human) = AURKB (human) (UniProt Q96GD4)
BRSK1 (human) = BRSK1 (human) (UniProt Q8TDC3)
BTK (human) = BTK (human) (UniProt Q06187)
CAMKK2 (human) = CAMKK2 (human) (UniProt Q96RR4)
CSK (human) = CSK (human) (UniProt P41240)
CSNK1D (human) = CSNK1D (human) (UniProt P48730)
CaMK1 (human) = CaMK1 (human) (UniProt Q14012)
DYRK1A (human) = DYRK1A (human) (UniProt Q13627)
DYRK2 (human) = DYRK2 (human) (UniProt Q92630)
EPHA4 (human) = EPHA4 (human) (UniProt P54764)
Sequence of EPHA4 (human) (P54764 whole entry, looked up): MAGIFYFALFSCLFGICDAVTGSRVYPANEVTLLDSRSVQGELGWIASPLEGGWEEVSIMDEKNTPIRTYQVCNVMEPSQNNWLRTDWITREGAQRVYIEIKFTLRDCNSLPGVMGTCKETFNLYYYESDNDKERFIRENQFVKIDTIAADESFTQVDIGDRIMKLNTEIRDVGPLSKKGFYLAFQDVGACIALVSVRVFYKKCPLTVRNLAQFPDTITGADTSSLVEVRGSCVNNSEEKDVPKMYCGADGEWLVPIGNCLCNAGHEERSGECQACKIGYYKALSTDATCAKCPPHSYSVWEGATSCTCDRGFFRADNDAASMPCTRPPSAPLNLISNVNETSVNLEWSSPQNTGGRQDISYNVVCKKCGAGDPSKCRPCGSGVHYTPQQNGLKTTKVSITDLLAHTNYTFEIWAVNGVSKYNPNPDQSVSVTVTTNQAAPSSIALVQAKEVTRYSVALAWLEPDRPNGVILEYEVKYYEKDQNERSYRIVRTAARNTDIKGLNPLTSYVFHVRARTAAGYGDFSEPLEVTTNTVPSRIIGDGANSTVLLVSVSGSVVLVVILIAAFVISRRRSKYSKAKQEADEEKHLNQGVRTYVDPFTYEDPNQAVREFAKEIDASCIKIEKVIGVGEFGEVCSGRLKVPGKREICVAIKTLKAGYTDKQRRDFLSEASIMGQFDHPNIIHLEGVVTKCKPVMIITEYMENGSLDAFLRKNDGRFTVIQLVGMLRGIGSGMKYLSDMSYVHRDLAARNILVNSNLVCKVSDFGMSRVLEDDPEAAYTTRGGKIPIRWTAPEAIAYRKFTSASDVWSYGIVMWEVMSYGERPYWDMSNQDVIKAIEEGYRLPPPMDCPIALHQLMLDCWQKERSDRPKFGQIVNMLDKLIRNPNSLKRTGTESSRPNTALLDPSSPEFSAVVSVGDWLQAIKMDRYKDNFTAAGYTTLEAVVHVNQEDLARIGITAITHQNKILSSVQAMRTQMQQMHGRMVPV

EPHB2 (human) = EPHB2 (human) (UniProt P29323)
EPHB3 (human) = EPHB3 (human) (UniProt P54753)
HIPK2 (human) = HIPK2 (human) (UniProt Q9H2X6)
IGF1R (human) = IGF1R (human) (UniProt P08069)
IKBKB (human) = IKBKB (human) (UniProt O14920)
IKBKE (human) = IKBKE (human) (UniProt Q14164)
MAP2K2 (human) = MAP2K2 (human) (UniProt P36507)
MAP3K11 (human) = MAP3K11 (human) (UniProt Q16584)
Sequence of MAP3K11 (human) (Q16584 whole entry, looked up): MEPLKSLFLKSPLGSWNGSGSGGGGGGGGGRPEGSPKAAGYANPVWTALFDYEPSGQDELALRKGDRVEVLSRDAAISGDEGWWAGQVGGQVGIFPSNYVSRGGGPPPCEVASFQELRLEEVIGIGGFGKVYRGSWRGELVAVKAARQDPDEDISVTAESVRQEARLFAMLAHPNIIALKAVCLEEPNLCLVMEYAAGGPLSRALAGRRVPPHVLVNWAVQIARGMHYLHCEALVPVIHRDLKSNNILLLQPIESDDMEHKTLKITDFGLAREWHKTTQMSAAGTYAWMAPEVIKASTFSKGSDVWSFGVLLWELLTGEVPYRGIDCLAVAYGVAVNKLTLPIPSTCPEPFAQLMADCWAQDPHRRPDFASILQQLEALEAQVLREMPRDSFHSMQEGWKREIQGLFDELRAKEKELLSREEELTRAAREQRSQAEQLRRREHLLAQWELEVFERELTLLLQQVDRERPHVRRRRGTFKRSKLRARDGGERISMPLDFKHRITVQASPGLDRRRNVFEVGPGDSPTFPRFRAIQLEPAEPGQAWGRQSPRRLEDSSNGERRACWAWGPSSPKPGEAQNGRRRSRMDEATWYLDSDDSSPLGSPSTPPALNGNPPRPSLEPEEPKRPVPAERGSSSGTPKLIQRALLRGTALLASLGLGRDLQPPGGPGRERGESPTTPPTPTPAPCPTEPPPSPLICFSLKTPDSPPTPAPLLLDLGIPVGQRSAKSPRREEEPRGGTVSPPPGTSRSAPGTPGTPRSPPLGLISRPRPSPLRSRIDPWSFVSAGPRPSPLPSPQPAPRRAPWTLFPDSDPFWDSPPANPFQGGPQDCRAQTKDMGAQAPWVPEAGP

MAP3K7 TAB1 (human) = MAP3K7 TAB1 (human) (UniProt Q15750+O43318)
MAPK12 (human) = MAPK12 (human) (UniProt P53778)
Sequence of MAPK12 (human) (P53778 whole entry, looked up): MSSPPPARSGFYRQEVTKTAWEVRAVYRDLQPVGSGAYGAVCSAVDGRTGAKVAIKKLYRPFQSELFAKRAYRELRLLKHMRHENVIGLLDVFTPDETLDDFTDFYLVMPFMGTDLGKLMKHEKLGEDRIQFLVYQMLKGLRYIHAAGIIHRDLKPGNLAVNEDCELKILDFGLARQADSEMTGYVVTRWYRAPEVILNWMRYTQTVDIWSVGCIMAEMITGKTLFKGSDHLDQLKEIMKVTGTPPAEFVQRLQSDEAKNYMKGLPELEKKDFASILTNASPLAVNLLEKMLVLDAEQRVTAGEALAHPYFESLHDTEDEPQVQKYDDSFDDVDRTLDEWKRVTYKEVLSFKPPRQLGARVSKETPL

MAPK14 (human) = MAPK14 (human) (UniProt Q16539)
MAPK15 (human) = MAPK15 (human) (UniProt Q8TD08)
MAPK8 (human) = MAPK8 (human) (UniProt P45983)
MAPK9 (human) = MAPK9 (human) (UniProt P45984)
Sequence of MAPK9 (human) (P45984 whole entry, looked up): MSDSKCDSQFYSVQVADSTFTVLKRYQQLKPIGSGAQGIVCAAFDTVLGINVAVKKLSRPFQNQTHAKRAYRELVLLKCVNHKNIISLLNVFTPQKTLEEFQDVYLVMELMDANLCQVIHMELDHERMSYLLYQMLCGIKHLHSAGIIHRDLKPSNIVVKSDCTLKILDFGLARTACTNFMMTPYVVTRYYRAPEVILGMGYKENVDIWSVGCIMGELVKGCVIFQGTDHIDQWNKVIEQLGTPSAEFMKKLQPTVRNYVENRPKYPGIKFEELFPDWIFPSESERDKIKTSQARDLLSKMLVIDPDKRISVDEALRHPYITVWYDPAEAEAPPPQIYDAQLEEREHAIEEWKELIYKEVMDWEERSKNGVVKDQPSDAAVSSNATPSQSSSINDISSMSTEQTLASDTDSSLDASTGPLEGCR

MAPKAPK2 (human) = MAPKAPK2 (human) (UniProt P49137); details: compound 1.0 µM
MELK (human) = MELK (human) (UniProt Q14680)
Sequence of MELK (human) (Q14680 whole entry, looked up): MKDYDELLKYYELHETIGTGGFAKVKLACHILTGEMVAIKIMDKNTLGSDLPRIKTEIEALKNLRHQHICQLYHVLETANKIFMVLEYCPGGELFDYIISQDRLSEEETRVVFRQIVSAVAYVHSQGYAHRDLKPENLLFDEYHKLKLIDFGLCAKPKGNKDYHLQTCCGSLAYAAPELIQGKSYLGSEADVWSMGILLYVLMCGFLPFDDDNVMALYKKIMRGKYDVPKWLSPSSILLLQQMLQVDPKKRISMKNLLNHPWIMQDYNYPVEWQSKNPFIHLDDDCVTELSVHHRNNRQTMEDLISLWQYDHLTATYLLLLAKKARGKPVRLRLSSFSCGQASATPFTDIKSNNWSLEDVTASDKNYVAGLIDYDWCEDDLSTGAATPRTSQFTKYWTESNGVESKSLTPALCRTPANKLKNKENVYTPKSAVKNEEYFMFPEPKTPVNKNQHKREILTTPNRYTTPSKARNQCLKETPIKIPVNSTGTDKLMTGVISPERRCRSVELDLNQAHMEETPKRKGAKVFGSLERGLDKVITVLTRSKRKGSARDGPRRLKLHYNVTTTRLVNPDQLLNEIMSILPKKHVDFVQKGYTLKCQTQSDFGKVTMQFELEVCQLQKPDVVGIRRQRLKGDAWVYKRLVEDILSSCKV

MINK1 (human) = MINK1 (human) (UniProt Q8N4C8)
MKNK2 (human) = MKNK2 (human) (UniProt Q9HBH9)
PAK4 (human) = PAK4 (human) (UniProt O96013)
Sequence of PAK4 (human) (O96013 whole entry, looked up): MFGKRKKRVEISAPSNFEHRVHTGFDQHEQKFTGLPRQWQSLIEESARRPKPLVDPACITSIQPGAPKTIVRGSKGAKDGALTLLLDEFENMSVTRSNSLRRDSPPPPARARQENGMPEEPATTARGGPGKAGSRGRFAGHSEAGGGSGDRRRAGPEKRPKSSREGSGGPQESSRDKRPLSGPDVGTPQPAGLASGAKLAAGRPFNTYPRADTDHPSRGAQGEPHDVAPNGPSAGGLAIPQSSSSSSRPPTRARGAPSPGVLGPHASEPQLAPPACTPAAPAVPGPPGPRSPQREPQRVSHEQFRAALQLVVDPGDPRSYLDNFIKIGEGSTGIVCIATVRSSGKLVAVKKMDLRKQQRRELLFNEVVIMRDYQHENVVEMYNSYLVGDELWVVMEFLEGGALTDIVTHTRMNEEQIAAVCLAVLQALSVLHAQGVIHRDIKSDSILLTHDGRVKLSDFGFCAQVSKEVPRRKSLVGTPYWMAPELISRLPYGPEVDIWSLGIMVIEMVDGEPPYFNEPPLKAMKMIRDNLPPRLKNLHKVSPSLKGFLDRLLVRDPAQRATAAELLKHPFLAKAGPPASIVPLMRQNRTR

PAK7 (human) = PAK7 (human) (UniProt Q9P286)
PIM1 (human) = PIM1 (human) (UniProt P11309)
PRKACA (human) = PRKACA (human) (UniProt P17612)
RIPK2 (human) = RIPK2 (human) (UniProt O43353)
Sequence of RIPK2 (human) (O43353 whole entry, looked up): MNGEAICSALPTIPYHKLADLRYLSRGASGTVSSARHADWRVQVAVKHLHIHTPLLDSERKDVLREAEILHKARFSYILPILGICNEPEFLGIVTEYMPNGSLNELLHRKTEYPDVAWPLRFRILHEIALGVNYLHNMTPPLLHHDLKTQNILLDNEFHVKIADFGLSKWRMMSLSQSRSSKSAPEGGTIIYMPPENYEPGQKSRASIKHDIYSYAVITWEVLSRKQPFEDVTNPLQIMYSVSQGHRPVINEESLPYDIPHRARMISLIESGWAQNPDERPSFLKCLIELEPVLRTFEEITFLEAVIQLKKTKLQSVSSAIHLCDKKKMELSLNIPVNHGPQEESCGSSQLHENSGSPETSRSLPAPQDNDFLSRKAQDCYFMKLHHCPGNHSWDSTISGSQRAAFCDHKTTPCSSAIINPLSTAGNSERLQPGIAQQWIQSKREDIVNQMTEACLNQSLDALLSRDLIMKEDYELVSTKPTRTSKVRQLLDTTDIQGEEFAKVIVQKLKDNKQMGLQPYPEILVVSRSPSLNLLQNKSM

YES1 (human) = YES1 (human) (UniProt P07947)

Sequence of CSNK1D (human) (P48730 whole entry, looked up): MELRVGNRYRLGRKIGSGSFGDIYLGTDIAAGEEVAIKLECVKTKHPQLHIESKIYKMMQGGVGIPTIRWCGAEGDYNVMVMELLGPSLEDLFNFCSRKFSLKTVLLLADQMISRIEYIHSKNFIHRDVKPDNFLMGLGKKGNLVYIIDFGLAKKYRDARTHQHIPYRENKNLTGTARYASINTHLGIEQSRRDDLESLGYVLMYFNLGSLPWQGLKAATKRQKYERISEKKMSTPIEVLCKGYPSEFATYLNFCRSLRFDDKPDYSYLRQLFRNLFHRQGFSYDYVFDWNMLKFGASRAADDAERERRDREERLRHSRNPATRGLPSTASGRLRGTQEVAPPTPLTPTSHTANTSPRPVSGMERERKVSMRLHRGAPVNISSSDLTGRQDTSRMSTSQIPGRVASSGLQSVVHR

CC1=C(CO)C(=O)O[C@@H]([C@@H](C)[C@H]2CC[C@H]3[C@@H]4C[C@H]5O[C@]56[C@@H](O)C=CC(=O)[C@]6(C)C4CC[C@]23C)C1 (stereo partly specified)
residual activity (AURKB (human); compound 0.1 µM): 108% | residual activity (AURKB (human); compound 1.0 µM): 86% | residual activity (AURKB (human); compound 10.0 µM): 10% | residual activity (BRSK1 (human); compound 0.1 µM): 106% | residual activity (BRSK1 (human); compound 1.0 µM): 111% | residual activity (BRSK1 (human); compound 10.0 µM): 91% | residual activity (BTK (human); compound 0.1 µM): 118% | residual activity (BTK (human); compound 1.0 µM): 115% | residual activity (BTK (human); compound 10.0 µM): 110% | residual activity (CAMKK2 (human); compound 0.1 µM): 115% | residual activity (CAMKK2 (human); compound 1.0 µM): 115% | residual activity (CAMKK2 (human); compound 10.0 µM): 99% | residual activity (CSK (human); compound 0.1 µM): 112% | residual activity (CSK (human); compound 1.0 µM): 109% | residual activity (CSK (human); compound 10.0 µM): 111% | residual activity (CSNK1D (human); compound 0.1 µM): 92% | residual activity (CSNK1D (human); compound 1.0 µM): 103% | residual activity (CSNK1D (human); compound 10.0 µM): 105% | residual activity (CaMK1 (human); compound 0.1 µM): 92% | residual activity (CaMK1 (human); compound 1.0 µM): 84% | residual activity (CaMK1 (human); compound 10.0 µM): 30% | residual activity (DYRK1A (human); compound 0.1 µM): 92% | residual activity (DYRK1A (human); compound 1.0 µM): 94% | residual activity (DYRK1A (human); compound 10.0 µM): 100% | residual activity (DYRK2 (human); compound 0.1 µM): 97% | residual activity (DYRK2 (human); compound 1.0 µM): 88% | residual activity (DYRK2 (human); compound 10.0 µM): 104% | residual activity (EPHA4 (human); compound 0.1 µM): 107% | residual activity (EPHA4 (human); compound 1.0 µM): 98% | residual activity (EPHA4 (human); compound 10.0 µM): 109% | residual activity (EPHB2 (human); compound 0.1 µM): 116% | residual activity (EPHB2 (human); compound 1.0 µM): 102% | residual activity (EPHB2 (human); compound 10.0 µM): 105% | residual activity (EPHB3 (human); compound 0.1 µM): 114% | residual activity (EPHB3 (human); compound 1.0 µM): 104% | residual activity (EPHB3 (human); compound 10.0 µM): 97% | residual activity (HIPK2 (human); compound 0.1 µM): 108% | residual activity (HIPK2 (human); compound 1.0 µM): 113% | residual activity (HIPK2 (human); compound 10.0 µM): 60% | residual activity (IGF1R (human); compound 0.1 µM): 105% | residual activity (IGF1R (human); compound 1.0 µM): 123% | residual activity (IGF1R (human); compound 10.0 µM): 113% | residual activity (IKBKB (human); compound 0.1 µM): 103% | residual activity (IKBKB (human); compound 1.0 µM): 103% | residual activity (IKBKB (human); compound 10.0 µM): 72% | residual activity (IKBKE (human); compound 0.1 µM): 96% | residual activity (IKBKE (human); compound 1.0 µM): 97% | residual activity (IKBKE (human); compound 10.0 µM): 61% | residual activity (MAP2K2 (human); compound 0.1 µM): 108% | residual activity (MAP2K2 (human); compound 10.0 µM): 120% | residual activity (MAP3K11 (human); compound 0.1 µM): 110% | residual activity (MAP3K11 (human); compound 1.0 µM): 110% | residual activity (MAP3K11 (human); compound 10.0 µM): 97% | residual activity (MAP3K7 TAB1 (human); compound 0.1 µM): 114% | residual activity (MAP3K7 TAB1 (human); compound 1.0 µM): 104% | residual activity (MAP3K7 TAB1 (human); compound 10.0 µM): 109% | residual activity (MAPK12 (human); compound 0.1 µM): 114% | residual activity (MAPK12 (human); compound 1.0 µM): 116% | residual activity (MAPK12 (human); compound 10.0 µM): 103% | residual activity (MAPK14 (human); compound 0.1 µM): 101% | residual activity (MAPK14 (human); compound 1.0 µM): 92% | residual activity (MAPK14 (human); compound 10.0 µM): 95% | residual activity (MAPK15 (human); compound 1.0 µM): 115% | residual activity (MAPK15 (human); compound 10.0 µM): 72% | residual activity (MAPK8 (human); compound 0.1 µM): 103% | residual activity (MAPK8 (human); compound 1.0 µM): 102% | residual activity (MAPK8 (human); compound 10.0 µM): 110% | residual activity (MAPK9 (human); compound 0.1 µM): 112% | residual activity (MAPK9 (human); compound 1.0 µM): 114% | residual activity (MAPK9 (human); compound 10.0 µM): 119% | residual activity (MAPKAPK2 (human)): 56% | residual activity (MELK (human); compound 0.1 µM): 98% | residual activity (MELK (human); compound 1.0 µM): 107% | residual activity (MELK (human); compound 10.0 µM): 123% | residual activity (MINK1 (human); compound 0.1 µM): 94% | residual activity (MINK1 (human); compound 1.0 µM): 88% | residual activity (MINK1 (human); compound 10.0 µM): 81% | residual activity (MKNK2 (human); compound 0.1 µM): 99% | residual activity (MKNK2 (human); compound 10.0 µM): 126% | residual activity (PAK4 (human); compound 0.1 µM): 94% | residual activity (PAK4 (human); compound 1.0 µM): 104% | residual activity (PAK4 (human); compound 10.0 µM): 104% | residual activity (PAK7 (human); compound 0.1 µM): 102% | residual activity (PAK7 (human); compound 1.0 µM): 116% | residual activity (PAK7 (human); compound 10.0 µM): 111% | residual activity (PIM1 (human); compound 0.1 µM): 109% | residual activity (PIM1 (human); compound 1.0 µM): 103% | residual activity (PIM1 (human); compound 10.0 µM): 94% | residual activity (PRKACA (human); compound 0.1 µM): 112% | residual activity (PRKACA (human); compound 1.0 µM): 109% | residual activity (PRKACA (human); compound 10.0 µM): 113% | residual activity (RIPK2 (human); compound 0.1 µM): 95% | residual activity (RIPK2 (human); compound 1.0 µM): 108% | residual activity (RIPK2 (human); compound 10.0 µM): 110% | residual activity (YES1 (human); compound 0.1 µM): 99% | residual activity (YES1 (human); compound 1.0 µM): 112%
